Target: T1, KRAS G12C 1-169, his-tagged protein, GDP-loaded (Homo sapiens, UniProt P01116, G12C)
T1 construct: KRAS G12C 1-169, his-tagged protein, GDP-loaded
Test: Biochemical assay: covalent binding to KRAS G12C analyzed by mass spectrometry; further: test concentration or dose not given here
Conditions: compounds 1-47, measured at 24 h

T1 sequence (P01116 1-169 isoform P01116-2 G12C): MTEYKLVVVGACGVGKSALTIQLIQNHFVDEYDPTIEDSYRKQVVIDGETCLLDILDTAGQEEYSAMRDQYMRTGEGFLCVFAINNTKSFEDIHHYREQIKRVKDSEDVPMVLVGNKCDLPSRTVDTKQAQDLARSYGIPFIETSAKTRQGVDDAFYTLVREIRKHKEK

Structure (SMILES)	Binding %
C=CC(=O)N1CCN(c2ncnc3cc(Cl)c(-c4cc(Cl)ccc4O)cc23)CC1 [Compound I-10, 1-(4-(7-chloro-6-(5-chloro-2-hydroxyphenyl)quinazolin-4-yl)piperazin-1-yl)prop-2-en-1-one]	++ (++indicates binding activity greater than 25% and up to 50%)
C=CC(=O)N1CCN(c2ncnc3cc(Cl)c(-c4ccccc4Cl)cc23)CC1 [Compound I-1, 1-(4-(7-chloro-6-(2-chlorophenyl)quinazolin-4-yl)piperazin-1-yl)prop-2-en-1-one]	+++ (+++indicates binding activity greater than 50% and up to 75%)
C=CC(=O)N1CCN(c2ncnc3cc(Cl)c(-c4cccs4)cc23)CC1 [Compound I-21, 1-(4-(7-chloro-6-(thiophen-2-yl)quinazolin-4-yl)piperazin-1-yl)prop-2-en-1-one]	+++ (+++indicates binding activity greater than 50% and up to 75%)
C=CC(=O)NC1CN(c2ncnc3cc(Cl)c(-c4ccccc4Cl)cc23)C1 [Compound I-29, N-(1-(7-chloro-6-(2-chlorophenyl)quinazolin-4-yl)azetidin-3-yl)acrylamide]	+ (+indicates binding activity from 5% to 25%)
C=CC(=O)N1CCN(c2ncnc3cc(Cl)c(-c4ccc(Cl)cc4)cc23)CC1C#N (centres unmarked) [Compound I-47, 1-acryloyl-4-(7-chloro-6-(4-chlorophenyl)quinazolin-4-yl)piperazine-2-carbonitrile]	++++ (++++indicates binding activity greater than 75%)
C=CC(=O)N1CCN(c2ncnc3cc(Cl)c(-c4ccccc4)cc23)CC1 [Compound I-18, 1-(4-(7-chloro-6-phenylquinazolin-4-yl)piperazin-1-yl)prop-2-en-1-one]	++ (++indicates binding activity greater than 25% and up to 50%)

Same assay, conditions: compounds 48-246, measured at 2 h

Structure (SMILES)	Binding %
C=CC(=O)N1CCN(c2ncnc3cc(-c4c(F)cccc4C(N)=O)c(Cl)cc23)CC1 [Compound I-232, 2-(4-(4-acryloylpiperazin-1-yl)-6-chloroquinazolin-7-yl)-3-fluorobenzamide]	+ (+indicates binding activity from 5% to 25%)
C=CC(=O)N1CCN(c2ncnc3cc(-n4cc(Cl)ccc4=O)c(Cl)cc23)CC1 [Compound I-177, 1-(4-(4-acryloylpiperazin-1-yl)-6-chloroquinazolin-7-yl)-5-chloropyridin-2(1H)-one]	+ (+indicates binding activity from 5% to 25%)
CN(C)C/C=C/C(=O)N1CCN(c2ncnc3cc(-c4ccccc4F)c(Cl)cc23)CC1 [Compound I-228, (E)0-1-(4-(6-chloro-7-(2-fluorophenyl)quinazolin-4-yl)piperazin-1-yl)-4-(dimethylamino)but-2-en-1-one]	+ (+indicates binding activity from 5% to 25%)
C=CC(=O)N1CCN(c2nc(C)nc3cc(-c4ccccc4)c(Cl)cc23)CC1 [Compound I-95, 1-(4-(6-chloro-2-methyl-7-phenylquinazolin-4-yl)piperazin-1-yl)prop-2-en-1-one]	++ (++indicates binding activity greater than 25% and up to 50%)
C=CC(=O)N1CCN(c2ncnc3c(F)c(-c4c(C)ccc5[nH]ncc45)c(Cl)cc23)CC1 [Compound I-234, 1-(4-(6-chloro-8-fluoro-7-(5-methyl-1H-indazol-4-yl)quinazolin-4-yl)piperazin-1-yl)prop-2-en-1-one]	++++ (++++indicates binding activity greater than 75%)
C=CC(=O)Nc1ncc(C)c(-c2cc3ncnc(N4CCN(C(=O)C=C)CC4)c3cc2Cl)n1 [Compound I-178, N-(4-(4-(4-acryloylpiperazin-1-yl)-6-chloroquinazolin-7-yl)-5-methylpyrimidin-2-yl)acrylamide]	+ (+indicates binding activity from 5% to 25%)
C=CC(=O)N1CCN(c2ncnc3cc(N4CCNCC4)c(Cl)cc23)CC1 [Compound I-80, 1-(4-(6-chloro-7-(piperazin-1-yl)quinazolin-4-yl)piperazin-1-yl)prop-2-en-1-one]	+ (+indicates binding activity from 5% to 25%)
C=CC(=O)N1CCN(c2ncnc3cc(-c4ccccc4F)c(C(F)(F)F)cc23)CC1 [Compound I-150, 1-(4-(7-(2-fluorophenyl)-6-(trifluoromethyl)quinazolin-4-yl)piperazin-1-yl)prop-2-en-1-one]	++++ (++++indicates binding activity greater than 75%)
C=CC(=O)N1CCN(c2ncnc3cc(-c4cccc5c4OC(F)(F)O5)c(Cl)cc23)CC1 [Compound I-200, 1-(4-(6-chloro-7-(2,2-difluorobenzo[d][1,3]dioxol-4-yl)quinazolin-4-yl)piperazin-1-yl)prop-2-en-1-one]	++ (++indicates binding activity greater than 25% and up to 50%)
C=CC(=O)N1CCN(c2ncnc3cc(-c4cc(F)ccc4F)c(Cl)cc23)CC1 [Compound I-113, 1-(4-(6-chloro-7-(2,5-difluorophenyl)quinazolin-4-yl)piperazin-1-yl)prop-2-en-1-one]	+++ (+++indicates binding activity greater than 50% and up to 75%)
C=CC(=O)N1CCN(c2ncnc3cc(-c4cc(O)ccc4Cl)c(Cl)cc23)CC1 [Compound I-128, 1-(4-(6-chloro-7-(2-chloro-5-hydroxyphenyl)quinazolin-4-yl)piperazin-1-yl)prop-2-en-1-one]	+++ (+++indicates binding activity greater than 50% and up to 75%)
C=CC(=O)N1CCN(c2ncnc3cc(-c4ccccc4C4CC4)c(Cl)cc23)CC1 [Compound I-126, 1-(4-(6-chloro-7-(2-cyclopropylphenyl)quinazolin-4-yl)piperazin-1-yl)prop-2-en-1-one]	++++ (++++indicates binding activity greater than 75%)
C=CC(=O)N1CCN(c2ncnc3cc(-c4ccc(F)cc4F)c(Cl)cc23)CC1CC#N (centres unmarked) [Compound I-139, 2-(1-acryloyl-4-(6-chloro-7-(2,4-difluorophenyl)quinazolin-4-yl)piperazin-2-yl)acetonitrile]	++++ (++++indicates binding activity greater than 75%)
C=CC(=O)N1CCN(c2ncnc3cc(-c4ccccc4)c(Cl)cc23)CC1CO (centres unmarked) [Compound I-116, 1-(4-(6-chloro-7-phenylquinazolin-4-yl)-2-(hydroxymethyl)piperazin-1-yl)prop-2-en-1-one]	++ (++indicates binding activity greater than 25% and up to 50%)
C=CC(=O)N1CCN(c2ncnc3cc(-c4ccccc4CC)c(Cl)cc23)CC1CC#N (centres unmarked) [Compound I-107, 2-(1-acryloyl-4-(6-chloro-7-(2-ethylphenyl)quinazolin-4-yl)piperazin-2-yl)acetonitrile]	++++ (++++indicates binding activity greater than 75%)

Same assay, conditions: compounds 247-342, measured at 30 min

Structure (SMILES)	Binding %
Cc1ccc2[nH]ncc2c1-c1c(Cl)cc2c(N3CCN(C(=O)/C=C/CN(C)C)CC3)nc(-c3cncs3)nc2c1F [Compound 333, (E)-1-(4-(6-chloro-8-fluoro-7-(5-methyl-1H-indazol-4-yl)-2-(thiazol-5-yl)quinazolin-4-yl)piperazin-1-yl)-4-(dimethylamino)but-2-en-1-one]	+ (+indicates binding activity from 5% to 25%)
C=CC(=O)N1CCN(c2ncnc3c(Cl)c(-c4c(OC)ccc5ccccc45)c(Cl)cc23)CC1 [Compound I-286, 1-(4-(6,8-dichloro-7-(2-methoxynaphthalen-1-yl)quinazolin-4-yl)piperazin-1-yl)prop-2-en-1-one]	+ (+indicates binding activity from 5% to 25%)
C=CC(=O)N1CCN(c2ncnc3cc(-c4cc(OC)cc5ccccc45)c(Cl)cc23)CC1 [Compound I-249, 1-(4-(6-chloro-7-(3-methoxynaphthalen-1-yl)quinazolin-4-yl)piperazin-1-yl)prop-2-en-1-one]	+ (+indicates binding activity from 5% to 25%)
C=CC(=O)N1CCN(c2ncnc3c(O)c(-c4ccc(F)cc4F)c(Cl)cc23)CC1 [Compound 321, 1-(4-(6-chloro-7-(2,4-difluorophenyl)-8-hydroxyquinazolin-4-yl)piperazin-1-yl)prop-2-en-1-one]	+ (+indicates binding activity from 5% to 25%)
C=CC(=O)N1CCN(c2c(C#N)cnc3c(F)c(-c4cc(O)cc5ccccc45)c(Cl)cc23)CC1 [Compound I-291, 4-(4-acryloylpiperazin-1-yl)-6-chloro-8-fluoro-7-(3-hydroxynaphthalen-1-yl)quinoline-3-carbonitrile]	++++ (++++indicates binding activity greater than 75%)
C=CC(=O)N1CCN(c2ncnc3c(F)c(-c4ccccc4C(C)(C)O)c(Cl)cc23)CC1 [Compound I-278, 1-(4-(6-chloro-8-fluoro-7-(2-(2-hydroxypropan-2-yl)phenyl)quinazolin-4-yl)piperazin-1-yl)prop-2-en-1-one]	++ (++indicates binding activity greater than 25% and up to 50%)
C=CC(=O)N1CCN(c2ncnc3c(F)c(-c4c(C)ccc5cn[nH]c45)c(Cl)cc23)CC1 [Compound I-274, 1-(4-(6-chloro-8-fluoro-7-(6-methyl-1H-indazol-7-yl)quinazolin-4-yl)piperazin-1-yl)prop-2-en-1-one]	++++ (++++indicates binding activity greater than 75%)

Same assay, conditions: determined at 24 hrs

Structure (SMILES)	Binding %
C=CC(=O)N1CC(N2CCN(C(=O)CCn3c(=O)[nH]c4cc(Cl)c(Cl)cc43)CC2)C1 [II-21, 1-(3-(4-(1-acryloylazetidin-3-yl)piperazin-1-yl)-3-oxopropyl)-5,6-dichloro-1H-benzo[d]imidazol-2(3H)-one]	+ (+indicates binding activity from 5% to 15%)
C=CC(=O)N1CC(N2CCN(C(=O)CNc3cc(OC)c(Cl)cc3Cl)CC2)C1 [II-5, 1-(3-(4-(2-(2,4-dichloro-5-methoxyphenyl-amino)acetyl)-piperazin-1-yl)azetidin-1-yl)prop-2-en-1-one]	+ (+indicates binding activity from 5% to 15%)
C=CC(=O)N1CC(N2CCN(C(=O)CNc3cc(C)c(Cl)cc3O)CC2)C1 [II-32, 1-(3-(4-(2-(4-chloro-2-hydroxy-5-methylphenylamino)-acetyl)piperazin-1-yl)azetidin-1-yl)prop-2-en-1-one]	++++ (++++indicates binding activity greater than 50%)
C=CC(=O)NC1CN(C2CN(C(=O)CNc3cc(C4CC4)c(Cl)cc3O)C2)C1 [II-45, N-(1′-(2-(4-chloro-5-cyclopropyl-2-hydroxyphenyl-amino)acetyl)-1,3′-biazetidin-3-yl)acrylamide]	++++ (++++indicates binding activity greater than 50%)

Source: US10111874B2, “Combination therapies for treatment of cancer” (Araxes Pharma LLC, priority 2014, dated 2018)
